One assay concerns 7-MX level in urine. Nature of the assay: Double blind study: urinary 7-MX in autistic children after secretin or placebo. The assay is classed as in vivo, human. The following applies: groups 0 and 1, basal vs one week after secretin. The text has this:
The urine samples of a double blind study on the effects of secretin on autistic children were available for further investigation on the changes of 7-MX after secretin treatment. Participants were divided into two groups. One group received secretin first, then placebo, and the other group received placebo first, then secretin. Three samples were collected for each subject: (i) basal urine, (ii) one week after secretin, (iii) one week after placebo. The changes of 7-MX level are shown in FIG. 8 (changes of 7-MX levels in double blind group “0”) and FIG. 9 (changes of 7-MX in double blind group “1”) for the two groups of patients. […] Only one subject in group 1 was an exception, where the basal 7-MX level was 10 times higher than the average.

Assay [1] has as its system symptoms of autistic disorder. To be noted: individuals diagnosed with autistic disorder; cited from earlier work.
Assay [2] relates to 7-MX levels in the first morning urine. The experiment in a line: 7-MX levels in first morning urine of autistic subjects after secretin infusion (time course). The assay is classed as in vivo, human. As to the method:
Urine samples from individuals, e.g., children, suspected of having autistic disorder are collected in 50 ml polypropylene centrifuge tubes and stored at a temperature below freezing, e.g., at −20° C. The samples are later thawed and centrifuged before pre-purification by solid phase extraction using e.g., SEP-PAK™ columns. The following is a suitable protocol for SEP-PAK™ extraction of one urine sample:
Suitable HPLC conditions to detect and analyze the methylxanthines and xanthines in a urine sample are as follows:
Samples are normalized for urinary output and variations in dilution using a standard creatinine assay. A portion of each sample is assayed to determine the creatinine content. Each sample is then diluted with water to achieve a standard creatinine concentration of […] in 100 μl of the sample.
Once the urine samples are properly pretreated, the level of methylxanthine, e.g., 7-MX, or xanthine is determined. […]
Samples of urine from autistic and non-autistic subjects were collected and analyzed for the presence of various metabolites before and after secretin treatment. Urine samples were analyzed by HPLC with a 4.5×100 mm C18 column detected at 215 nm and 280 nm. […]
The 7-MX levels in the first morning urine of autistic subjects after secretin treatment were monitored. […]

Entries after “also recorded” stand apart in the source; their conditions may differ.

As to “secretin: a hormone shown to improve symptoms of autistic disorder; stimulates secretion of pancreatic bicarbonate fluid”, the “change of urinary 7-MX level one week after secretin” value with 7-MX level in urine was “increased or stayed at the same level, but did not decrease; also recorded: increased the excretion of 7-MX and other methylxanthines”. In addition, the “effect on symptoms of autistic disorder” value in assay [1] is reported as “improve symptoms”. In addition, the “change of 7-MX level (HPLC peak RT5.5) in urine after secretin treatment” value in assay [2] (autistic children, first morning urine, after secretin infusion) was “increase in size after secretin treatment in some children; also recorded: increases during the first week after secretin infusion and then decreases; also recorded: increased, and then decreased after about one week”. Further, the “dose dependence of urinary 7-MX level after secretin” value in assay [2] (one autistic child, first treatment about 4 μg, second about 15 μg secretin) is “a higher dose of secretin would lead to a higher level of 7-MX in the urine”.

(Values after patent US6365593B2, “Methylxanthines in the diagnosis and treatment of autistic disorder” (Repligen Corporation, priority 2000, dated 2002).)
